Source: patent US7635686B2, “Therapeutically useful triethyleneglycol cholesteryl oligonucleotides” (Bioniche Life Sciences, Inc., priority 2001, dated 2009)
{TEG-Chol} = cholesteryl attached through a triethyleneglycol (TEG) spacer, added as cholesteryl-TEG phosphoramidite

Key:
HIG-82 cells [1] = test: HIG-82 synovial cell proliferation (MTT reduction); assay type: cell-based, rabbit; conditions: 53 μM, 48 hours
Protocol: Adherent HIG-82 cells, a synovial cell line, were incubated at 10×10^5 cells/ml for 48 hours with 53 μM (final concentration) of SEQ ID NO:2, SEQ ID NO:3, SEQ ID NO:4, SEQ ID NO:6, SEQ ID NO:7, or SEQ ID NO:8. Cellular proliferation was measured using dimethylthiazol-diphenyl-tetrazolium (MTT) reduction (Mosman et al., J. Immunol. Methods 65:55, 1983). MTT was measured at a wavelength of 570 nm using a multiple spectrophotometer reader (ELX800, Bio-TEK, Instruments Inc., Winooski, Vt.). The percentage of inhibition, calculated as […]

MEG-01 cells [2] = test: Cell cycle stage in MEG-01 cells (propidium iodide flow cytometry); assay type: cell-based, human; conditions: 24 h
Protocol: To determine a cell cycle stage, various assays and procedures known to one skilled in the art may be employed. One such procedure uses a CYCLETEST™ PLUS DNA commercial kit (Becton Dickinson, Franklin Lakes, N.J.). Briefly, nuclei from cells are obtained by dissolving the cell membrane in a nonionic detergent, eliminating the cell cytoskeleton and nuclear proteins with trypsin, digesting the cellular RNA with RNase, and stabilizing the nuclear chromatin with spermine. Propidium iodide is added to the cell nuclei and their fluorescence was analyzed in a flow cytometer equipped with electronic doublet discrimination capability (FACSCalibur, Becton Dickinson, Franklin Lakes, N.J.). Accumulation of cells in G0/G1, early S (SE), mid S (SM), late S (SL) or G2/M phases of the cell cycle may be analyzed using MODFIT LT software (Verity Software House Inc., Topsham, Mass.), or other appropriate software.
Exponentially growing MEG-01 cells (2×10^5 cells/ml) were incubated for 24 h with 0 μM (control), 53 μM of SEQ ID NO:2 or 53 μM of SEQ ID NO:6. The cells were collected, centrifuged, and cell cycle stage was determined.

MEG-01 cells [3] = test: Apoptosis by phosphatidylserine redistribution (FITC-annexin V flow cytometry) in MEG-01 cells; assay type: cell-based, human; conditions: 48 hours; for Percentage of positive cells for phosphatidylserine (cells in apoptosis) in MEG-01 cells: untreated cells 12%; for Induction of apoptosis in MEG-01 cells (in words): translocation of phosphatidylserine, up to 53.0 μM
Protocol: Redistribution of plasma membrane phosphatidylserine is a characteristic of cells undergoing apoptosis (Martin et al., J. Exp. Med., 182:1545, 1995). The redistribution of phosphatidylserine in the plasma membrane during apoptosis was measured by flow cytometry using FITC (fluorescein isothiocyanate)-conjugated annexin V (BD Pharmingen, San Diego, Calif.). MEG-01 cells, a human chronic myelogeneous leukemia cell line positive for the Philadelphia chromosome and having a BCR-ABL gene fusion, were incubated at 2.5×10^5 cells/ml for 48 hours with 5.3, 26.5 and 53.0 μM final concentrations of SEQ ID NO:1, SEQ ID NO:2, SEQ ID NO:5, SEQ ID NO:6 and cholesteryl-TEG phosphoramidite molecule. The percentage of cells in apoptosis after exposure to the SEQ ID NOs:1, 2, 5, 6, or cholesteryl-TEG phosphoramidite treatment is reported in Table 2. The percentage of apoptosis in untreated MEG-01 cells was 12%.

MEG-01 cells [4] = test: MEG-01 cells inoculated subcutaneously in athymic nude mice; assay type: in vivo; conditions: 1, 10, 100 mg/kg, after 4 weeks of treatment; versus saline and unconjugated sequences; dose-dependent
Protocol: MEG-01 cells are inoculated subcutaneously into athymic nude mice as previously described (Takeo et al., Leukemia 7:1286, 1993). The mice are divided into 13 groups of 10 mice. On day 0, group 1 mice receive saline, group 2 mice receive 1 mg/kg SEQ ID NO:1, group 3 mice receive 10 mg/kg SEQ ID NO:1, group 4 mice receive 100 mg/kg SEQ ID NO:1, group 5 mice receive 1 mg/kg SEQ ID NO:2, group 6 mice receive 10 mg/kg SEQ ID NO:2, group 7 mice receive 100 mg/kg SEQ ID NO:2, group 8 mice receive 1 mg/kg SEQ ID NO:5, group 9 mice receive 10 mg/kg SEQ ID NO:5, group 10 mice receive 100 mg/kg SEQ ID NO:5, group 11 mice receive 1 mg/kg SEQ ID NO:6, group 12 mice receive 10 mg/kg SEQ ID NO:6 and group 13 mice receive 100 mg/kg SEQ ID NO:6 After 4 weeks of treatment, the mice are sacrificed and tumor mass is determined.

[5] = tested on: Streptococcal cell wall-induced arthritis; test: Streptococcal cell wall-induced arthritis in rats; assay type: in vivo, LEW/N rats; conditions: 1, 10, 100 mg/kg with SCW, monitored daily for two weeks; versus SCW alone and unconjugated sequences; dose-dependent
Protocol: Streptococcal cell wall-induced arthritis in LEW/N rats resembles a localized neoplasm consisting of, in part, of a proliferative and invasive population of fibroblast-like synovial cells (Yocum et al., Am. J. Pathol. 132:38, 1988). The arthritis is induced in LEW/N rats by intra-articular injection of streptocococcal cell wall (SCW) from group A Streptococcus pyogenes. The rats are divided into 13 groups of 10 rats. On day 0, group 1 rats receive SCW, group 2 rats receive SCW+1 mg/kg SEQ ID NO:1, group 3 rats receive SCW+10 mg/kg SEQ ID NO:1, group 4 rats receive SCW+100 mg/kg SEQ ID NO:1, group 5 rats receive SCW+1 mg/kg SEQ ID NO:2, group 6 rats receive SCW+10 mg/kg SEQ ID NO:2, group 7 rats receive SCW+100 mg/kg SEQ ID NO:2, group 8 rats receive SCW+1 mg/kg SEQ ID NO:5, group 9 rats receive SCW+10 mg/kg SEQ ID NO:5, group 10 rats receive SCW+100 mg/kg SEQ ID NO:5, group 11 rats receive SCW+1 mg/kg SEQ ID NO:6, group 12 rats receive SCW+10 mg/kg SEQ ID NO:6, group 13 rats receive SCW+[…]. The joint inflammation is monitored daily for two weeks.

HIG-82 cells [6] = test: Apoptosis by nuclear DNA fragmentation (TUNEL, flow cytometry) in HIG-82 cells; assay type: cell-based, rabbit; conditions: 53 μM; for Percentage of cells containing DNA fragmentation (cells in apoptosis) in HIG-82 cells: 48 hours, TUNEL; for Induction of apoptosis in HIG-82 cells (in words): fragmented nuclear DNA
Protocol: Adherent HIG-82 cells were incubated at 1.0×10^5 cells/ml for 48 hours with 53 μM final concentration of SEQ ID NO:1, SEQ ID NO:2, SEQ ID NO:5 or SEQ ID NO:6. Since phosphatidylserine/annexin V detection of apoptosis was not reliable after adherent cell harvesting techniques, such as trypsinization (van Engeland, Cytometry, 31:1, 1998), apoptosis in HIG-82 cells was evaluated using flow cytometry by the detection of fragmented DNA by terminal deoxynucleotidyl transferase enzyme-mediated bromodeoxyuridine triphosphate-biotin nick end-labeling (TUNEL) using a commercial assay (APO-BRDU™ kit; BD Pharmingen). The percentage of cells containing nuclear DNA fragmentation was determined. After 24 hours, untreated HIG-82 cells were essentially negative for nuclear DNA fragmentation.

Mpanc-96 cells = test: MATRIGEL outgrowth after 1 hr pre-incubation, Mpanc-96; assay type: cell-based, human; conditions: Mpanc-96, 53 μM pre-incubation 1 hr, 3 days on MATRIGEL, FIG. 1
Protocol: (§1) Various in vitro and in vivo assays may be used to evaluate the influence of the extracellular microenvironment on behavior of normal cells and tumor cells. Such assays may employ MATRIGEL® (Becton Dickinson, Franklin Lakes, N.J.), which is a solubilized basement membrane preparation extracted from the Engelbreth-Holm-Swarm murine sarcoma.
(§2) MCF-7, MDA-MB-231 (MDA-231), Hs578T and Mpanc-96 cells were cultured separately in regular culture medium, trypsinized, and counted. 100×10^3 of MDA-231 cells, 100×10^3 of Hs578T cells, 150×10^3 of MCF-7 cells and 150×10^3 of Mpanc-96 cells were separately pre-incubated for 1 hr at 37° C. in a final concentration of 53 μM of SEQ ID NO:1, 53 μM of SEQ ID NO:5 or RCM, and plated on top of MATRIGEL®-coated plates (MATRIGEL® Basement membrane matrix coated cellware 24-well plate,) for 3 days. Plates were fixed with 10% formalin. Digital photographs of the cells in the 24-well plates were taken using a Nikon Coolpix 990 digital camera (Nikon Corporation, Tokyo, Japan) connected to a Nikon inverted microscope model TMS.

MCF-7 cells = test: MATRIGEL outgrowth after 1 hr pre-incubation, MCF-7; assay type: cell-based, human; conditions: MCF-7, 53 μM pre-incubation 1 hr, 3 days on MATRIGEL, FIG. 1
Protocol: as §1, §2

[7] = tested on: MDA-MB-231 (MDA-231) cells; test: MATRIGEL outgrowth after 1 hr pre-incubation, MDA-231; assay type: cell-based, human; conditions: MDA-231, 53 μM pre-incubation 1 hr, 3 days on MATRIGEL, FIG. 1 and FIG. 2
Protocol: as §1, §2
(§3) MDA-MB-231 (MDA-231) and Hs578T were cultured in regular culture medium, trypsinized and counted. 100×10^3 of MDA-MB-231 cells or 100×10^3 of Hs578T cells, were separately pre-incubated for 1 hr at 37° C. in a final concentration of 53 μM of SEQ ID NO:4, 53 μM of SEQ ID NO:8 or RCM and plated on MATRIGEL®-coated plates for 3 days. Plates were fixed with 10% formalin. Digital photographs of the cells in the 24-well plates were taken using a Nikon Coolpix 990 digital camera (Nikon Corporation, Tokyo, Japan) connected to a Nikon inverted microscope model TMS.

Hs578T cells = test: MATRIGEL outgrowth after 1 hr pre-incubation, Hs578T; assay type: cell-based, human; conditions: 53 μM pre-incubation 1 hr, 3 days on MATRIGEL, FIG. 1 and FIG. 2
Protocol: as §1, §2, §3

MDA-MB-231 cells = test: Release of nuclear mitotic apparatus protein (NuMA) by MDA-MB-231 cells (ELISA); assay type: cell-based, human; conditions: MDA-MB-231 monolayers, 53 μM, 72 hrs; percentage increase
Protocol: MDA-MB-231 cells were cultured as monolayers in respective control media, with 53 μM final concentration of SEQ ID NO:1 or 53 μM final concentration of SEQ ID NO:5 for 72 hrs. The release of nuclear mitotic apparatus protein (NuMA) was used as a measure of apoptosis. NuMA was determined using a commercial (ELISA kit (Oncogene, Cambridge, Mass.) following the manufacturer's protocol. Results are shown in Table 10 and are expressed as the percentage increase in NuMA release compared to respective controls based on optical density measurements.

Row | Substance | Inhibition of proliferation of synovial HIG-82 cells (in words) (HIG-82 cells [1]) | Inhibition of HIG-82 cell proliferation, inhibition (%) (HIG-82 cells [1]; MTT) | Induction of cell cycle arrest in MEG-01 cells (in words) (MEG-01 cells [2]; 53 μM) | % of cells in phase SM (MEG-01 cells [2]; MEG-01, 53 μM, untreated 10.8) [%] | % of cells in phase SL + G2/M (MEG-01 cells [2]; MEG-01, 53 μM, untreated 17.8) [%] | % of cells in phase G0/G1 + SE (MEG-01 cells [2]; MEG-01, 53 μM, untreated 71.4) [%] | Percentage of positive cells for phosphatidylserine (cells in apoptosis) in MEG-01 cells (MEG-01 cells [3]; 5.3 μM) [%] | Percentage of positive cells for phosphatidylserine (cells in apoptosis) in MEG-01 cells (MEG-01 cells [3]; 26.5 μM) [%] | Percentage of positive cells for phosphatidylserine (cells in apoptosis) in MEG-01 cells (MEG-01 cells [3]; 53.0 μM) [%] | Induction of apoptosis in MEG-01 cells (in words) (MEG-01 cells [3]) | Tumor mass (MEG-01 cells [4]) | Joint inflammation [5] | Percentage of cells containing DNA fragmentation (cells in apoptosis) in HIG-82 cells (HIG-82 cells [6]) [%] | Induction of apoptosis in HIG-82 cells (in words) (HIG-82 cells [6]) | Formation of 3-dimensional structures / cell morphology on MATRIGEL (Mpanc-96 cells) | Formation of 3-dimensional structures / cell morphology on MATRIGEL (MCF-7 cells) | Formation of 3-dimensional structures / cell morphology on MATRIGEL [7] | Formation of 3-dimensional structures / cell morphology on MATRIGEL (Hs578T cells) | NuMA release compared to controls (%) (MDA-MB-231 cells)
1 | 5′ OH-GGGAGG(TEG-cholesteryl) 3′ (3' {TEG-Chol}, sugars by position and backbone not given here) [SEQ ID NO:6, 5′-OH, 3′-TEG cholesteryl synthetic oligonucleotide] | capacity to inhibit the cellular proliferation | 75 | capacity to induce cell cycle arrest at the SL+G2/M phase | 6.5 | 41.9 | 51.6 | 13 | 22 | 39 | capacity to induce apoptosis | less tumor mass | less inflammation | 18 | capacity to induce apoptosis | – | – | – | – | –
2 | 5′ OH-GGGTGG(TEG-cholesteryl) 3′ [SEQ ID NO:5] | – | – | – | – | – | – | 12 | 27 | 42 | capacity to induce apoptosis | less tumor mass | less inflammation | 17 | capacity to induce apoptosis | prevented the formation of 3-dimensional structures | prevented the formation of 3-dimensional structures | prevented the formation of 3-dimensional structures | prevented the formation of 3-dimensional structures | –
3 | 5′ OH-GGGTGG-OH 3′ [SEQ ID NO:1] | – | – | – | – | – | – | 12 | 12 | 12 | inactive | – | – | 1 | inactive | did not change cell morphology | did not change cell morphology | did not change cell morphology | did not change cell morphology | +5%
